Each structure is given as a SMILES string. Where a name gives a salt, the structure may show the parent alone.

As a reminder, the melting point is the temperature, or range, at which the solid turns liquid. Turning to `CCN1CCN(c2nc(-c3ccc(N4C[C@@H](C)O[C@@H](C)C4)nc3)cc3ccccc23)CC1` (as salt: hydrochloride) [Example 149, 3-[2-(2,6-dimethylmorpholin-4-yl)pyridin-5-yl]-1-(4-ethylpiperazin-1-yl)isoquinoline trihydrochloride], the melting point worked out at 180 °C. The value for `CCN1CCN(c2nc(-c3ccc(N4CCSCC4)nc3)cc3ccccc23)CC1` (as salt: hydrochloride) [Example 150, 1-(4-ethylpiperazin-1-yl)-3-[2-(thiomorpholin-4-yl)pyridin-5-yl]isoquinoline trihydrochloride] was 210 °C; that for `CCN1CCN(c2nc(-c3ccc(N4CC[S+]([O-])CC4)nc3)cc3ccccc23)CC1` (as salt: hydrochloride) [Example 151, 1-(4-ethylpiperazin-1-yl)-3-[2-(S-oxythiomorpholin-4-yl)pyridin-5-yl]isoquinoline trihydrochloride] was 170 °C. The value for `CCN1CCN(c2nc(-c3ccc(N4CCC(OC)CC4)nc3)cc3ccccc23)CC1` (as salt: hydrochloride) [Example 153, 1-(4-ethylpiperazin-1-yl)-3-[2-(4-methoxypiperidin-1-yl)pyridin-5-yl]isoquinoline trihydrochloride] was 170 °C; that for `CCN1CCN(c2nc(-c3ccc(N4CCC(CO)CC4)nc3)cc3ccccc23)CC1` (as salt: hydrochloride) [Example 154, 1-(4-ethylpiperazin-1-yl)-3-[2-(4-hydroxymethylpiperidin-1-yl)pyridin-5-yl]isoquinoline trihydrochloride] was 188 °C; that for `CCN1CCN(c2nc(-c3ccc(N4CCOCC4)cc3)cc3ccccc23)CC1` (as salt: hydrochloride) [Example 160, 3-[4-(4-morpholinyl)phenyl]-1-(4-ethylpiperazin-1-yl)isoquinoline dihydrochloride] was 242 to 245 °C (dec.). The same measure for `CCN1CCN(c2nc(-c3csc(CO)c3)cc3ccccc23)CC1` (as salt: hydrochloride) [Example 161, 1-(1-ethylpiperazin-4-yl)-3-(2-hydroxymethylthiophen-4-yl)isoquinoline dihydrochloride]: 170 °C; for `CCN1CCN(c2nc(-c3cnc(N4CCOCC4)s3)cc3ccccc23)CC1` (as salt: hydrochloride) [Example 173, 1-(1-ethylpiperazin-4-yl)-3-[2-(4-morpholinyl)-5-thiazolyl]isoquinoline dihydrochloride]: 265 °C (dec.); for `CCCC(=O)Nc1ncc(-c2cc3ccccc3c(N3CCN(CC)CC3)n2)cn1` (as salt: hydrochloride) [Example 174, 3-(2-Propylcarbonylaminopyrimidin-5-Yl)-1-(4-Ethylpiperazin-1-Yl)Isoquinoline Hydrochlroide]: 216 to 219 °C.

For `CCN1CCN(c2nc(-c3ccc(C4=CCOCC4)s3)cc3ccccc23)CC1` (as salt: hydrochloride) [Example 176, 3-[2-(5,6-Dihydro-2H-Pyran-4-Yl)Thiophen-5-Yl]-1-[4-Ethylpiperazin-1-Yl)Isoquinoline Hydrochloride], the melting point lay within 256 to 258 °C. The value for `CCN1CCN(c2nc(C#Cc3ccccc3)cc3ccccc23)CC1` (as salt: hydrochloride) [Example 177, 1-(1-Ethylpiperazin-4-Yl)-3-(Phenylethynyl)Isoquinoline Dihydrochloride] was 133 to 136 °C; that for `CCN1CCN(c2nc(C#Cc3ccc(OC)cc3)cc3ccccc23)CC1` (as salt: hydrochloride) [Example 178, 1-(1-Ethylpiperazin-4-Yl)-3-(4-Methoxyphenyl)Ethynylisoquinoline Dihydrochloride] was 230 °C (dec.); that for `CCN1CCN(c2nc(C#CCCc3ccccc3)cc3ccccc23)CC1` (as salt: hydrochloride) [Example 182, 1-(1-Ethylpiperazin-4-Yl)-3-[4-Phenyl-1-Butynyl)Isoquinoline Dihydrochloride] was 120 to 128 °C. The value for `CCN1CCN(c2nc(C#Cc3ccc(OCCO)cc3)cc3ccccc23)CC1` (as salt: hydrochloride) [Example 183, 1-(1-Ethylpiperazin-4-Yl]-3-[4-(2-Hydroxyethoxy)Phenylethynyl]Isoquinoline Dihydrochloride] was 205 to 208 °C. The value for `CCN1CCN(c2nc(C#Cc3cncc(CCCOC)c3)cc3ccccc23)CC1` (as salt: hydrochloride) [Example 186, 1-(1-Ethylpiperazin-4-Yl)-3-[3-(3-Methoxypropyl)-5-Pyridyl]Ethynylisoquinoline] was 135 to 140 °C; that for `CCN1CCN(c2nc(C#Cc3ncccc3OCCO)cc3ccccc23)CC1` (as salt: hydrochloride) [Example 188, 1-(1-Ethylpiperazin-4-Yl)-3-[3-(2-Hydroxyethoxy)-2-Pyridyl]Ethynylisoquinoline] was 153 to 159 °C; that for `CCN1CCN(c2nc(/C=C/c3ccccc3)cc3ccccc23)CC1` (as salt: hydrochloride) [Example 189, 1-(1-Ethylpiperazin-4-Yl)-3-(Trans-2-Phenylethenyl)Isoquinoline Dihydrochloride] was 222 to 225 °C. In the case of `CCN1CCN(c2nc(/C=C/c3ccc(OC)cc3)cc3ccccc23)CC1` (as salt: hydrochloride) [Example 190, 1-(1-Ethylpiperazin-4-Yl)-3-[Trans-2-(4-Methoxyphenyl)Ethenyl]Isoquinoline Dihydrochloride], the melting point was 227 °C (dec.). The same measure for `CCN1CCN(c2nc(/C=C/c3ccc(S(C)(=O)=O)cc3)cc3ccccc23)CC1` (as salt: hydrochloride) [Example 201, 3-[(E)-2-(4-Methylsulfonylphenyl)Ethenyl]-1-(4-Ethylpiperazin-1-Yl)Isoquinoline Hydrochloride]: 170 to 174 °C; for `CCN1CCN(c2nc(/C=C/c3ccccn3)cc3ccccc23)CC1` (as salt: hydrochloride) [Example 209, 1-(1-Ethylpiperazin-4-Yl)-3-[Trans-2-(2-Pyridyl)Ethenyl]Isoquinoline Trihydrochloride]: 220 °C (dec.).

As for `CCN1CCN(c2nc(C(=O)Nc3ccccc3)cc3ccccc23)CC1` (as salt: hydrochloride) [Example 218, 1-(ethylpiperazin-4-yl)-N-phenyl-3-isoquinolinecarboxamide dihydrochloride], the melting point was 260 °C (dec.).

On to `CCN1CCN(c2nc(-c3ccc(OC)cc3)c(OC)c3ccccc23)CC1` (as salt: hydrochloride) [Example 221, 1-(1-ethylpiperazin-4-yl)-4-methoxy-3-(4-methoxyphenyl)isoquinoline dihydrochloride], for which the melting point lay within 227 to 235 °C. The value for `CCN1CCN(c2nc(-c3ccc(OCCO)cc3)cc3cc(F)ccc23)CC1` (as salt: hydrochloride) [Example 223, 1-(4-ethylpiperazin-1-yl)-3-[4-(2-hydroxyethoxy)phenyl]-6-fluoroisoquinoline dihydrochloride] was 152 to 170 °C.
